Read-outs that look alike come from different tables or passages of the source.
What was measured:
[1] = Dissolution of Nystatin complex and Nystatin base material in water at 37 °C; type: physicochemical; settings: destilliertes Wasser, after the first 5 Minuten
Procedure: Der auf die beschriebene Weise hergestellte Komplex zeigte bei den thermoanalytischen Untersuchungen im Vergleich zum Gemisch die gleichen Abweichungen wie der gemäß Beispiel 3 durch Lyophilisieren hergestellte Komplex. Die Löslichkeit von einer der Wirkstoffmenge von 10 mg/ml entsprechenden Menge Nystatin-γ-CD-Komplex und von Nystatingrundmaterial wurde in 15 ml destilliertem Wasser bei 37 °C untersucht. Die Lösungen wurden mit dem Magnetrührer bei einer Drehzahl von 150 min⁻¹ gerührt. Zu unterschiedlichen Zeitpunkten wurden Proben genommen, filtriert und spektrophotometrisch auf ihren Wirkstoffgehalt untersucht. Die Ergebnisse sind in der Tabelle 6 zusammengestellt.
Das Spektrum der von der wäßrigen Suspension des Nystatingrundmaterials genommenen Proben war nicht auswertbar. […] Zuerst deformierte sich das Maximum um 290 nm und verschwand dann ganz, und im Bereich geringerer Wellenlänge zeigten sich neue Maxima, was auf Schädigung des konjugierten Chromophorsystems schließen läßt.

[2] = cited from earlier work

Q: Which results are given for `C[C@@H]1[C@H](O)[C@@H](C)/C=C/C=C/CC/C=C/C=C/C=C/C=C/C(O[C@H]2O[C@H](C)[C@@H](O)[C@H](N)[C@@H]2O)CC2O[C@](O)(CC(O)C(O)CCC(O)CC(O)CC(O)CC(=O)O[C@H]1C)CC(O)C2C(=O)O` (stereo partly shown) [Nystatin]?
A: Zersetzung in aqueous suspension (UV spectrum) [1]: fortschreitende Zersetzung; Löslichkeit ([2]; 70 %iges wäßriges Isopropanol): 2,2 mg/ml; Löslichkeit ([2]; 75 %-iges wäßriges Äthanol): 4 mg/mL; maximale Löslichkeit ([2]; Methanol): 9,2-11,2 mg/ml; Löslichkeit ([2]; reines Isopropanol): 0,62 mg/ml; Löslichkeit ([2]; reines Äthanol): 0,55 mg/ml; Löslichkeit, increase ([2]; zusammen mit Polyvinylpyrrolidon ausgefällt (coprecipitate)): 8-10 mal
